The source of these data is US5015647A, “Method for treating viral infections” (Burroughs Wellcome Co., priority 1989, dated 1991).

The target of assay [1] is T1, adenosine (purine) receptors (Cavia porcellus, UniProt P47745).
T1 construct: Ilea were removed from sacrificed guinea pigs and placed in organ baths; from tissue; host or cells: guinea pig ileum
T1 sequence (P47745 1-326): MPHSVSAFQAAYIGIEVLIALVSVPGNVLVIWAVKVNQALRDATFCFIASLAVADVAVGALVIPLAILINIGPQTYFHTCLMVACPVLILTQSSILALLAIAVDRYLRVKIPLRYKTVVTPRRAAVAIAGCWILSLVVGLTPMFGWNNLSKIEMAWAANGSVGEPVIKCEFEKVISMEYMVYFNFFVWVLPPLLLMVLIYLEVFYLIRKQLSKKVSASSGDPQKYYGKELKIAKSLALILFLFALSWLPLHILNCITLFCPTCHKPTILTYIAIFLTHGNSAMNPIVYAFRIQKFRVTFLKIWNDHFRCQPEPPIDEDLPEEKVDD
The assay is described as follows: guinea pig ileum twitch test, antagonism of purine receptors (agonist 2-chloroadenosine). As to conditions: slope in parentheses after pA2. As to the method:
Accordingly, a representative number of compounds of the present invention were tested for their ability to antagonise the purine receptors using the guinea pig ileum test system.
Ilea were removed from sacrificed guinea pigs and placed in organ baths containing oxygenated Krebs-Henseleit buffer. After equilibration, the ilea were stimulated to contract (twitch contraction) using an electrical field-stimulus of 0.1 Hz, 0.5 ms duration and maximal voltage. Under these conditions, the twitch contraction results from the release of acetylcholine.
Concentration response curves to the purine agonist, 2-chloroadenosine, were determined first in the absence and then in the presence of multiple concentrations of the compounds of the invention. One concentration of each compound was used per tissue. Quantification of purine receptor antagonism was accomplished using the Schild regression technique, i.e. plots of log (dose-ratio-1) vs log compound concentration, and the pA2 determined by regression of the data points to the x-intercept, where log (dose-ratio-1) is zero.

In assay [2] the test system is HIV. The assay is described as follows: anti-HIV activity, in-vitro assay system. It is filed as cell-based. As to conditions: for EC50: Human immunodeficiency virus 1, 50% effective dose estimated, read-out: μM ED50; for EC50 / ED50 (expressed as active (+) or very active (++)): in vitro anti-HIV; for ED50 (expressed as active (+) or very active (++)): grade. Also on record: key to ED50 (expressed as active (+) or very active (++)): +: active; ++: very active. As to the method: The anti-HIV activity of various compounds was tested using an in-vitro assay system as described in H Mitsuya et al; (Proc Natl. Acad.Sci. USA Vol 82 pp 7096-7100, October 1985)

Turning to `CCCn1c(=O)c2nc(-c3ccc(/C=C/C(=O)O)cc3)[nH]c2n(CCC)c1=O` [Example 6, (E)-4-(1,2,3,6-tetrahydro-2,6-dioxo-1,3-dipropyl-9H-purin-8-yl)cinnamic acid], the “slope (Schild regression)” value in assay [1] came out at 0.9.

As for `CCCn1c(=O)n(C)c(=O)c2nc(-c3ccc(/C=C/C(=O)O)cc3)[nH]c21` [Example 11, (E)-4-(1,2,3,6-tetrahydro-1-methyl-2,6-dioxo-3-propyl-9H-purin-8-yl)cinnamic acid], the “slope (Schild regression)” value in assay [1] was found to be 1.0.

As for `CCCCn1c(=O)c2nc(-c3ccc(/C=C/C(=O)O)cc3)[nH]c2n(CCCC)c1=O` [Example 14, (E)-4-(1,3-dibutyl-1,2,3,6-tetrahydro-2,6-dioxo-9H-purin-8-yl)cinnamic acid], the “slope (Schild regression)” value in assay [1] was determined as 1.0. Besides, in assay [2], the EC50 is 30 µM and the “ED50 (expressed as active (+) or very active (++))” value (shortened to “ED50”) is on record as “+”.

`O=C(O)/C=C/c1ccc(-c2nc3c(=O)n(Cc4ccccc4)c(=O)n(Cc4ccccc4)c3[nH]2)cc1` [Example 15, (E)-4-(1,3-dibenzyl-1,2,3,6-tetrahydro-2,6-dioxo-9H-purin-8yl) cinnamic acid]: in assay [1], the “slope (Schild regression)” value is 0.9. Further, in assay [2], the EC50 was 3 to 15 µM and the “ED50” value was “++”. Also, in assay [2] (against AIDV / retroviruses, statement in words, listed as compound 14), the “antiviral / anti-retroviral activity, in words” value was “especially potent activity against AIDV”.

On to `Cn1c(=O)c2nc(-c3ccc(/C=C/C(=O)O)cc3)[nH]c2n(Cc2ccccc2)c1=O` [Example 18, (E)-4-(3-benzyl-1,2,3,6-tetrahydro-1-methyl-2,6-dioxo-9H-purin-8yl) cinnamic acid], for which, in assay [1], the “slope (Schild regression)” value worked out at 0.9.

As for `CC(C)Cn1c(=O)c2nc(-c3ccc(/C=C/C(=O)O)cc3)[nH]c2n(CC(C)C)c1=O` [Example 19, (E)-4-(1,2,3,6-tetrahydro-1,3-diisobutyl-2,6-dioxo-9H-purin-8-yl)cinnamic acid], in assay [1], the “slope (Schild regression)” value worked out at 1.0.

Turning to `CCCn1c(=O)n(Cc2ccccc2)c(=O)c2nc(-c3ccc(/C=C/C(=O)O)cc3)[nH]c21` [Example 25, (E)-4-(1-Benzyl-1,2,3,6-tetrahydro-2,6-dioxo-3-propyl-9H-purin-8-yl)cinnamic acid], in assay [2], the EC50 is 30 µM and the “ED50” value is given as “+”.

For the molecule `CCCn1c(=O)c2nc(-c3ccc(/C=C/C(=O)O)cc3)[nH]c2n(Cc2ccccc2)c1=O` [Example 26, (E)-4-(3-Benzyl-1,2,3,6-tetrahydro-2,6dioxo-1-propyl-9H-purin-8-yl)cinnamicacid], in assay [2], the EC50 was 30 µM and the “ED50” value was “+”.

`Cn1c(=O)c2[nH]cnc2n(C)c1=O` [THEOPHYLLINE, 1,3-dimethylxanthine, reference compound]: in assay [1], the “slope (Schild regression)” value was determined as 1.1.
